Laboratory results as given in patent US20020137929A1, “1 - (3-heterocyclylphenyl) isothiourea, -isourea, -guanidine and -amidine herbicidal agents” (Intellectual Property Department, BASF Aktiengesellschaft, priority 1998, published 2002).

Key:
ABUTH (Velvetleaf) = assay: Preemergence herbicidal evaluation; assay type: in vivo, Abutilon theophrasti; conditions: rated 4-5 weeks after treatment; for ABUTH rating: preemergence, 0-9 scale
Method in brief: (§1)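 Steps: mix seeds into potting soil; plant atop ~1 inch soil; spray compound in aqueous acetone (~0.0156-0.500 kg/ha equivalent); maintain in greenhouse with watering; rate visually 0-9 versus control at 4-5 weeks.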

[1] = system: TRZAWR (Wheat, Winter, cv Riband); assay: Preemergence herbicidal evaluation; assay type: in vivo, Triticum aestivum; conditions: rated 4-5 weeks after treatment; for TRZAWR rating: preemergence, 0-9 scale
Method in brief: as §1

[2] = system: ECHORC (Watergrass (Calif.)); assay: Preemergence weed control under flooded paddy conditions; assay type: in vivo, Echinochloa oryzoides; conditions: rated 3-4 weeks after treatment
Method in brief: (§2)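 Ratings on a 0-9 visual scale cover stand, vigor, malformation, size, chlorosis and overall appearance relative to a control, taken three to four weeks post-treatment. Application was into flood water over freshly sown silt loam at roughly 0.0313 to 0.500 kg/ha.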

CYPIR (Rice Flatsedge) = assay: as above; assay type: in vivo, Cyperus iria; conditions: rated 3-4 weeks after treatment
Method in brief: as §2

[3] = system: SAGPY (Arrowhead (Pygmaea)); assay: as above; assay type: in vivo, Sagittaria pygmaea; conditions: rated 3-4 weeks after treatment
Method in brief: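 Herbicidal effect is scored visually on a 0-9 scale against an untreated control, three to four weeks after compounds are pipetted into the flood water (1.5 to 3 cm deep) over seeds planted in silt loam at 0.5 cm depth. Rates: about 0.0313 to 0.500 kg/ha.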

MOOVA (Monochoria) = assay: Postemergence weed control under flooded paddy conditions; assay type: in vivo, Monochoria vaginalis; conditions: postemergence weeds
Method in brief: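 Injury ratings (0–9 scale covering stand, vigor, malformation, size, chlorosis and overall appearance versus control) were made three to four weeks after treatment. Test material, about 0.0313 to 0.500 kg/ha a.i. in 50/50 v/v aqueous/acetone, was added to flood water 1.5 to 3 cm deep over 3 to 5 cm weeds and 1.5 to 2.5 leaf rice.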

[4] = rate 0.0313 kg/ha, 3-4 weeks after treatment
[5] = rate 0.0625 kg/ha, 3-4 weeks after treatment
[6] = rate 0.1250 kg/ha, 3-4 weeks after treatment
[7] = rate 0.2500 kg/ha, 3-4 weeks after treatment

SMILES	ABUTH preemergence herbicidal rating (ABUTH (Velvetleaf); rate 0.0156 kg/ha)	ABUTH preemergence herbicidal rating (ABUTH (Velvetleaf); rate 0.0313 kg/ha)	ABUTH preemergence herbicidal rating (ABUTH (Velvetleaf); rate 0.0625 kg/ha)	ABUTH preemergence herbicidal rating (ABUTH (Velvetleaf); rate 0.1250 kg/ha)	ABUTH preemergence herbicidal rating (ABUTH (Velvetleaf); rate 0.2500 kg/ha)	TRZAWR preemergence herbicidal rating ([1]; rate 0.0156 kg/ha)	TRZAWR preemergence herbicidal rating ([1]; rate 0.0313 kg/ha)	TRZAWR preemergence herbicidal rating ([1]; rate 0.0625 kg/ha)	Herbicidal rating ECHORC ([2]; 0.0313 kg/ha)	Herbicidal rating ECHORC ([2]; 0.0625 kg/ha)	Herbicidal rating ECHORC ([2]; 0.1250 kg/ha)	Herbicidal rating ECHORC ([2]; 0.2500 kg/ha)	Herbicidal rating CYPIR (CYPIR (Rice Flatsedge); 0.0313 kg/ha)	Herbicidal rating CYPIR (CYPIR (Rice Flatsedge); 0.0625 kg/ha)	Herbicidal rating CYPIR (CYPIR (Rice Flatsedge); 0.1250 kg/ha)	Herbicidal rating CYPIR (CYPIR (Rice Flatsedge); 0.2500 kg/ha)	Herbicidal rating MOOVA (MOOVA (Monochoria); [4])	Herbicidal rating MOOVA (MOOVA (Monochoria); [5])	Herbicidal rating MOOVA (MOOVA (Monochoria); [6])	Herbicidal rating MOOVA (MOOVA (Monochoria); [7])	other results
CC1SC(=Nc2cc(-n3c(=O)cc(C(F)(F)F)n(C)c3=O)c(F)cc2Cl)N(C)C1=O (centres unmarked) [Compound 9]	9.0	9.0	9.0	9.0	9.0	4.0	7.0	7.5	0.0	2.0	4.0	7.0	0.0	2.0	4.0	6.0	9.0	9.0	9.0	9.0	TRZAWR preemergence herbicidal rating ([1]; rate 0.1250 kg/ha): 9.0; TRZAWR preemergence herbicidal rating ([1]; rate 0.2500 kg/ha): 9.0; Herbicidal rating SAGPY ([3]; 0.0313 kg/ha): 0.0; Herbicidal rating SAGPY ([3]; 0.0625 kg/ha): 0.0; Herbicidal rating SAGPY ([3]; 0.1250 kg/ha): 1.0; Herbicidal rating SAGPY ([3]; 0.2500 kg/ha): 2.0
CCC1SC(=Nc2cc(-n3c(=O)cc(C(F)(F)F)n(C)c3=O)c(F)cc2Cl)N(C)C1=O (centres unmarked) [Compound 10]	5.5	8.0	9.0	9.0	9.0	1.0	3.5	5.5	0.0	1.0	2.0	2.0	0.0	0.0	2.0	4.0	9.0	9.0	9.0	9.0	TRZAWR preemergence herbicidal rating ([1]; rate 0.1250 kg/ha): 6.5; TRZAWR preemergence herbicidal rating ([1]; rate 0.2500 kg/ha): 7.5; Herbicidal rating SAGPY ([3]; 0.0313 kg/ha): 0.0; Herbicidal rating SAGPY ([3]; 0.0625 kg/ha): 0.0; Herbicidal rating SAGPY ([3]; 0.1250 kg/ha): 0.0; Herbicidal rating SAGPY ([3]; 0.2500 kg/ha): 0.0
CCOC(=O)CN1C(=O)C(F)SC1=Nc1cc(-n2c(=O)cc(C(F)(F)F)n(C)c2=O)c(F)cc1Cl (centres unmarked) [Compound 11, Ethyl 2-{{2-chloro-5-[3,6-dihydro-3-methyl-2,6-dioxo-4-(trifluoromethyl)-1(2H)-pyrimidinyl]-4-fluorophenyl}imino}-5-fluoro-4-oxo-3-thiazolidineacetate]	7.5	8.5	8.5	9.0	9.0	0.0	0.0	0.0	1.0	2.0	2.0	3.0	0.0	0.0	0.0	0.0	0.0	1.0	4.0	7.0	TRZAWR preemergence herbicidal rating ([1]; rate 0.1250 kg/ha): 2.0; TRZAWR preemergence herbicidal rating ([1]; rate 0.2500 kg/ha): 5.0; Herbicidal rating SAGPY ([3]; 0.0313 kg/ha): 0.0; Herbicidal rating SAGPY ([3]; 0.0625 kg/ha): 0.0; Herbicidal rating SAGPY ([3]; 0.1250 kg/ha): 0.0; Herbicidal rating SAGPY ([3]; 0.2500 kg/ha): 0.0
CCOC(=O)CN1C(=O)C(C)SC1=Nc1cc(-n2c(=O)cc(C(F)(F)F)n(C)c2=O)c(F)cc1Cl (centres unmarked) [Compound 12]	7.5	9.0	9.0	9.0	9.0	0.0	1.0	5.0	5.0	9.0	8.5	9.0	0.0	0.0	1.0	0.0	9.0	9.0	9.0	9.0	TRZAWR preemergence herbicidal rating ([1]; rate 0.1250 kg/ha): 8.0; TRZAWR preemergence herbicidal rating ([1]; rate 0.2500 kg/ha): 8.0; Herbicidal rating SAGPY ([3]; 0.0313 kg/ha): 0.0; Herbicidal rating SAGPY ([3]; 0.0625 kg/ha): 1.0; Herbicidal rating SAGPY ([3]; 0.1250 kg/ha): 4.0; Herbicidal rating SAGPY ([3]; 0.2500 kg/ha): 0.0
C=CCN1C(=O)C(CC(=O)Nc2ccccc2)SC1=Nc1cc(-n2c(=O)cc(C(F)(F)F)n(C)c2=O)c(F)cc1Cl (centres unmarked) [Compound 44, 3-Allyl-2-{{2-chloro-5-[3,6-dihydro-3-methyl-2,6-dioxo-4-(trifluoromethyl)-1(2H)-pyrimidinyl]-4-fluorophenyl}imino}-4-oxo-5-thiazolidineacetanilide]									6.0	6.0	7.0	8.0	5.0	6.0	6.0	9.0	4.0	4.0	7.0	9.0	Preemergence herbicidal rating ABUTH (ABUTH (Velvetleaf); rate 0.0156 kg/ha): 0.0; Preemergence herbicidal rating ABUTH (ABUTH (Velvetleaf); rate 0.0313 kg/ha): 0.0; Preemergence herbicidal rating ABUTH (ABUTH (Velvetleaf); rate 0.0625 kg/ha): 0.0; Preemergence herbicidal rating ABUTH (ABUTH (Velvetleaf); rate 0.1250 kg/ha): 9.0; Preemergence herbicidal rating ABUTH (ABUTH (Velvetleaf); rate 0.2500 kg/ha): 9.0; Preemergence herbicidal rating ABUTH (ABUTH (Velvetleaf); rate 0.5000 kg/ha): 9.0; Preemergence herbicidal rating TRZAWR ([1]; rate 0.0156 kg/ha): 0.0; Preemergence herbicidal rating TRZAWR ([1]; rate 0.0313 kg/ha): 0.0; Preemergence herbicidal rating TRZAWR ([1]; rate 0.0625 kg/ha): 0.0; Preemergence herbicidal rating TRZAWR ([1]; rate 0.1250 kg/ha): 0.0; Preemergence herbicidal rating TRZAWR ([1]; rate 0.2500 kg/ha): 0.0; Preemergence herbicidal rating TRZAWR ([1]; rate 0.5000 kg/ha): 0.0
CN1C(=O)C(CC(=O)NS(C)(=O)=O)SC1=Nc1cc(-n2c(=O)cc(C(F)(F)F)n(C)c2=O)c(F)cc1Cl (centres unmarked) [Compound 97, 2-{{2-Chloro-5-[3,6-dihydro-3-methyl-2,6-dioxo-4-(trifluoromethyl)-1(2H)-pyrimidinyl]-4-fluorophenyl}imino}-3-methyl-N-(methylsulfonyl)-4-oxo-5-thiazolidineacetamide]																					ABUTH rating (ABUTH (Velvetleaf); 0.1250 kg/ha): 4.0; ABUTH rating (ABUTH (Velvetleaf); 0.2500 kg/ha): 9.0; ABUTH rating (ABUTH (Velvetleaf); 0.5000 kg/ha): 9.0; TRZAWR rating ([1]; 0.1250 kg/ha): 0.0; TRZAWR rating ([1]; 0.2500 kg/ha): 1.0; TRZAWR rating ([1]; 0.5000 kg/ha): 2.0; ECHORC herbicidal effect rating ([2]; 0.0313 kg/ha): 0.0; ECHORC herbicidal effect rating ([2]; 0.0625 kg/ha): 0.0; ECHORC herbicidal effect rating ([2]; 0.1250 kg/ha): 2.0; ECHORC herbicidal effect rating ([2]; 0.2500 kg/ha): 3.0; CYPIR herbicidal effect rating (CYPIR (Rice Flatsedge); 0.0313 kg/ha): 0.0; CYPIR herbicidal effect rating (CYPIR (Rice Flatsedge); 0.0625 kg/ha): 0.0; CYPIR herbicidal effect rating (CYPIR (Rice Flatsedge); 0.1250 kg/ha): 3.0; CYPIR herbicidal effect rating (CYPIR (Rice Flatsedge); 0.2500 kg/ha): 4.0; Herbicidal rating MOOVA (MOOVA (Monochoria); Rate 0.0313 kg/ha, rated 3 to 4 weeks after treatment): 9.0; Herbicidal rating MOOVA (MOOVA (Monochoria); Rate 0.0625 kg/ha, rated 3 to 4 weeks after treatment): 9.0; Herbicidal rating MOOVA (MOOVA (Monochoria); Rate 0.1250 kg/ha, rated 3 to 4 weeks after treatment): 9.0; Herbicidal rating MOOVA (MOOVA (Monochoria); Rate 0.2500 kg/ha, rated 3 to 4 weeks after treatment): 9.0
